Experimental data: US20240325398A1, “COMBINATION THERAPIES” (Infinity Pharmaceuticals, Inc., priority 2014, published 2024)

What was measured:
GRANTA-519 = experiment: Combination study, ATPLite 72 h, dose matrix (Synergy Score, CI50); settings: combination with Compound 1
Mino = experiment: as above; settings: combination with Compound 1
Jeko-1 = experiment: as above; settings: combination with Compound 1
Method: (§1) Cells are thawed from a liquid nitrogen preserved state. Once cells have been expanded and divide at their expected doubling times, screening begins. Cells are seeded in growth media in either black 1536-well or 384-well tissue culture treated plates. Cells are then equilibrated in assay plates via centrifugation and placed in incubators attached to the Dosing Modules at 37° C. for 24 hours before treatment. […] These Tzero (To) plates are read using ultra-sensitive luminescence on Envision plate readers (Perkin Elmer). Treated assay plates are incubated with compound for 72 hours. After 72 hours, plates are developed for endpoint analysis using ATPLite. All data points are collected via automated processes, quality controlled and analyzed using Zalicus software.
(§2) where T is treated cell count and V is untreated (vehicle) cell count (at 72 hours). I ranges from 0% (when T=V) to 100% (when T=0). […] The measure of effect in the experiment can be the inhibition of cellular response relative to the untreated level (vehicle alone). […] The inhibition ranges from 0% at the untreated level to 100% when T=0. Inhibition levels are negative for agents that actually increase levels. Other effect measures, such as an activity ratio r=T/V may be more appropriate for some assays. When activity ratios (e.g, fold increase over stimulated control) are being used, the effect can be measured using an induction 1=ln(T/V). With this definition, all effect expressions are the same as for inhibition.
(§3) Growth Inhibition (GI) is used as a measure of cell viability. […] A GI reading of 100% represents complete growth inhibition—T72 compound-treated and T0 vehicle signals are matched. […] A GI reading of 200% represents complete death of all cells in the culture well. Compounds reaching an activity plateau of GI 200% are considered cytotoxic. GI is calculated by applying the following test and equation:
(§4) Combination analysis data were collected in a 6×6 dose matrix. Synergy is calculated by comparing a combination's response to those of its single compound, against the drug-with-itself dose-additive reference model. Deviations from dose additivity may be assessed visually on an isobologram or numerically with a Combination Index (CI). […] Additive effect is CI=1.0. […] Antagonistic effect is CI>1.0.
(§5) To measure combination effects in excess of Loewe additivity, a scalar measure to characterize the strength of synergistic interaction termed the Synergy Score is devised. The Synergy Score is calculated as:
(§6) The fractional inhibition for each component agent and combination point in the matrix is calculated relative to the median of all vehicle-treated control wells. The Synergy Score equation integrates the experimentally-observed activity volume at each point in the matrix in excess of a model surface numerically derived from the activity of the component agents using the Loewe model for additivity. Additional terms in the Synergy Score equation (above) are used to normalize for various dilution factors used for individual agents and to allow for comparison of synergy scores across an entire experiment. The inclusion of positive inhibition gating or an Idata multiplier removes noise near the zero effect level, and biases results for synergistic interactions at that occur at high activity levels.
(§7) Loewe Volume (Loewe Vol) is used to assess the overall magnitude of the combination interaction in excess of the Loewe additivity model. Loewe Volume is particularly useful when distinguishing synergistic increases in a phenotypic activity (positive Loewe Volume) versus synergistic antagonisms (negative Loewe Volume). […] This model defines additivity as a non-synergistic combination interaction where the combination dose matrix surface should be indistinguishable from either drug crossed with itself.

NCI-H929 = experiment: as above; settings: combination with Compound 1
Farage = experiment: as above; settings: combination with Compound 1; Farage; 72 h
U-2932 = experiment: as above; settings: combination with Compound 1, 72 h
KARPAS-422 = experiment: as above; settings: combination with Compound 1, 72 h
Method: as §1, §2, §3, §4, §5, §6, §7

SU-DHL-4-epst = experiment: as above; settings: combination with Compound 1, 72 h
KARPAS-299 = experiment: as above; settings: combination with Compound 1
WSU-NHL = experiment: as above; settings: combination with Compound 1, 72 h
RPMI-8226 = experiment: as above; settings: combination with Compound 1
TMD8 = experiment: as above; settings: combination with Compound 1; TMD8; 72 h
OCI-Ly3 = experiment: as above; settings: combination with Compound 1; OCI-Ly3; 72 h
SU-DHL-10-epst = experiment: as above; settings: combination with Compound 1, 72 h
RL = experiment: as above; settings: combination with Compound 1, 72 h
HH = experiment: as above; format: cell-based; settings: combination with Compound 1
Method: The method is described as follows.
Additive effect is CI=1.0. […] Antagonistic effect is CI>1.0.
The Synergy Score is calculated as: […]

OCI-Ly7 = experiment: as above; settings: combination with Compound 1, 72 h
HBL-1 = experiment: as above; settings: combination with Compound 1, 72 h
[1] = as above; settings: combination with Compound 1; OPM-2
OMP-2 = experiment: as above; settings: combination with Compound 1; OPM-2
DOHH-2 = experiment: as above; settings: combination with Compound 1, 72 h
Method: as §1
The measure of effect in the experiment can be the inhibition of cellular response relative to the untreated level (vehicle alone). […] The inhibition ranges from 0% at the untreated level to 100% when T=0. Inhibition levels are negative for agents that actually increase levels.
as §3, §4, §5, §6
Loewe Volume (Loewe Vol) is used to assess the overall magnitude of the combination interaction in excess of the Loewe additivity model. Loewe Volume is particularly useful when distinguishing synergistic increases in a phenotypic activity (positive Loewe Volume) versus synergistic antagonisms (negative Loewe Volume). […] This model defines additivity as a non-synergistic combination interaction where the combination dose matrix surface should be indistinguishable from either drug crossed with itself. The calculation for Loewe additivity is:

SMILES: CC(C)C[C@H](NC(=O)[C@H](CCc1ccccc1)NC(=O)CN1CCOCC1)C(=O)N[C@@H](Cc1ccccc1)C(=O)N[C@@H](CC(C)C)C(=O)[C@@]1(C)CO1 [carfilzomib, (S)-4-methyl-N—((S)-1-(((S)-4-methyl-1-((R)-2-methyloxiran-2-yl)-1-oxopentan-2-yl)amino)-1-oxo-3-phenylpropan-2-yl)-2-((S)-2-(2-morpholinoacetamido)-4-phenylbutanamido)pentanamide]
- CI50 growth inhibition (GRANTA-519): T (T=0.5 to <0.7)
- CI50 inhibition (GRANTA-519): W (W=≥1)
- Synergy Score growth inhibition (GRANTA-519): A2 (A2=1 to <3)
- Synergy Score inhibition (GRANTA-519): A1 (A1=0.0001 to <1)
- CI50 growth inhibition (Mino): U (U=0.7 to <1)
- CI50 inhibition (Mino): U (U=0.7 to <1)
- Synergy Score growth inhibition (Mino): A2 (A2=1 to <3)
- Synergy Score inhibition (Mino): A1 (A1=0.0001 to <1)
- CI50 growth inhibition (Jeko-1): U (U=0.7 to <1)
- CI50 inhibition (Jeko-1): U (U=0.7 to <1)
- Synergy Score growth inhibition (Jeko-1): A1 (A1=0.0001 to <1)
- Synergy Score inhibition (Jeko-1): A1 (A1=0.0001 to <1)
- CI50 growth inhibition (NCI-H929): U (U=0.7 to <1)
- CI50 inhibition (NCI-H929): W (W=≥1)
- Synergy Score growth inhibition (NCI-H929): A3 (A3=>3)
- Synergy Score inhibition (NCI-H929): A1 (A1=0.0001 to <1)
- CI50 growth inhibition (Farage): U (U=0.7 to <1)
- CI50 inhibition (Farage): U (U=0.7 to <1)
- Synergy Score growth inhibition (Farage): A3 (A3=>3)
- Synergy Score inhibition (Farage): A1 (A1=0.0001 to <1)
- CI50 growth inhibition (U-2932): U (U=0.7 to <1)
- CI50 inhibition (U-2932): U (U=0.7 to <1)
- Synergy Score growth inhibition (U-2932): A2 (A2=1 to <3)
- Synergy Score inhibition (U-2932): A2 (A2=1 to <3)
- CI50 growth inhibition (KARPAS-422): T (T=0.5 to <0.7)
- CI50 inhibition (KARPAS-422): U (U=0.7 to <1)
- Synergy Score growth inhibition (KARPAS-422): A3 (A3=>3)
- Synergy Score inhibition (KARPAS-422): A1 (A1=0.0001 to <1)
- CI50 growth inhibition (SU-DHL-4-epst): U (U=0.7 to <1)
- CI50 inhibition (SU-DHL-4-epst): U (U=0.7 to <1)
- Synergy Score growth inhibition (SU-DHL-4-epst): A3 (A3=>3)
- Synergy Score inhibition (SU-DHL-4-epst): A2 (A2=1 to <3)
- CI50 growth inhibition (KARPAS-299): W (W=≥1)
- CI50 inhibition (KARPAS-299): W (W=≥1)
- Synergy Score growth inhibition (KARPAS-299): A1 (A1=0.0001 to <1)
- Synergy Score inhibition (KARPAS-299): A1 (A1=0.0001 to <1)
- CI50 growth inhibition (WSU-NHL): U (U=0.7 to <1)
- CI50 inhibition (WSU-NHL): U (U=0.7 to <1)
- Synergy Score growth inhibition (WSU-NHL): A2 (A2=1 to <3)
- Synergy Score inhibition (WSU-NHL): A1 (A1=0.0001 to <1)
- CI50 growth inhibition (RPMI-8226): U (U=0.7 to <1)
- CI50 inhibition (RPMI-8226): W (W=≥1)
- Synergy Score growth inhibition (RPMI-8226): A3 (A3=>3)
- Synergy Score inhibition (RPMI-8226): A1 (A1=0.0001 to <1)
- CI50 growth inhibition (TMD8): U (U=0.7 to <1)
- CI50 inhibition (TMD8): U (U=0.7 to <1)
- Synergy Score growth inhibition (TMD8): A3 (A3=>3)
- Synergy Score inhibition (TMD8): A2 (A2=1 to <3)
- CI50 growth inhibition (OCI-Ly3): U (U=0.7 to <1)
- CI50 inhibition (OCI-Ly3): W (W=≥1)
- Synergy Score growth inhibition (OCI-Ly3): A2 (A2=1 to <3)
- Synergy Score inhibition (OCI-Ly3): A1 (A1=0.0001 to <1)
- CI50 growth inhibition (SU-DHL-10-epst): U (U=0.7 to <1)
- CI50 inhibition (SU-DHL-10-epst): U (U=0.7 to <1)
- Synergy Score growth inhibition (SU-DHL-10-epst): A3 (A3=>3)
- Synergy Score inhibition (SU-DHL-10-epst): A2 (A2=1 to <3)
- CI50 growth inhibition (RL): W (W=≥1)
- CI50 inhibition (RL): W (W=≥1)
- Synergy Score growth inhibition (RL): A1 (A1=0.0001 to <1)
- Synergy Score inhibition (RL): A1 (A1=0.0001 to <1)
- CI50 growth inhibition (HH): T (T=0.5 to <0.7)
- CI50 inhibition (HH): T (T=0.5 to <0.7)
- Synergy Score growth inhibition (HH): A3 (A3=>3)
- Synergy Score inhibition (HH): A1 (A1=0.0001 to <1)
- CI50 growth inhibition (OCI-Ly7): W (W=≥1)
- CI50 inhibition (OCI-Ly7): W (W=≥1)
- Synergy Score growth inhibition (OCI-Ly7): A2 (A2=1 to <3)
- Synergy Score inhibition (OCI-Ly7): A1 (A1=0.0001 to <1)
- CI50 growth inhibition (HBL-1): T (T=0.5 to <0.7)
- CI50 inhibition (HBL-1): U (U=0.7 to <1)
- Synergy Score growth inhibition (HBL-1): A1 (A1=0.0001 to <1)
- Synergy Score inhibition (HBL-1): A1 (A1=0.0001 to <1)
- CI50 growth inhibition [1]: U (U=0.7 to <1)
- CI50 inhibition (OMP-2): U (U=0.7 to <1)
- Synergy Score growth inhibition (OMP-2): A2 (A2=1 to <3)
- Synergy Score inhibition (OMP-2): A1 (A1=0.0001 to <1)
- CI50 growth inhibition (DOHH-2): U (U=0.7 to <1)
- CI50 inhibition (DOHH-2): U (U=0.7 to <1)
- Synergy Score growth inhibition (DOHH-2): A3 (A3=>3)
- Synergy Score inhibition (DOHH-2): A1 (A1=0.0001 to <1)
